# Measurements reported in patent US20250270180A1, “MEK INHIBITORS AND THERAPEUTIC USES THEREOF” (Immuneering Corporation, priority 2020, published 2025).
# pIC50: −log10 of the molar value.
# Tests used:
# CYP450 1A2 = molecular target: T1, CYP450 1A2 (Homo sapiens, UniProt P05177); assay: CYP450 panel, 1A2; type: in vitro ADME; conditions: 10 μM; substrate phenacetin
# T1 sequence (P05177 1-516): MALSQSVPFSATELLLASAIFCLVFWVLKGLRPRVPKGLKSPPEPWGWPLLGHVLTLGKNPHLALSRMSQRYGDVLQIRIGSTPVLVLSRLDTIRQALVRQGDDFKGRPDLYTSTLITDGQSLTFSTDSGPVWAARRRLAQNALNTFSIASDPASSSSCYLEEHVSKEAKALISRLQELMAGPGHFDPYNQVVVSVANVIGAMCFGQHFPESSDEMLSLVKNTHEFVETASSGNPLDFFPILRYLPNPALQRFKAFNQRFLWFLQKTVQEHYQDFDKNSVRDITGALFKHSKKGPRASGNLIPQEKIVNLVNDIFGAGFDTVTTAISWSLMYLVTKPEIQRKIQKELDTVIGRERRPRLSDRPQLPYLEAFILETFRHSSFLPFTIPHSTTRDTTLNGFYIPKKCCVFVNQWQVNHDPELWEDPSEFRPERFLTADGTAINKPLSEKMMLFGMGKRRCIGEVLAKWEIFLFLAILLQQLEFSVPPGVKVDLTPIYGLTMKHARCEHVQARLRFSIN
# Plasma stability, human = type: in vitro ADME; conditions: 2 μM
# CYP450 2D6 = CYP450 2D6 (Homo sapiens, UniProt P10635); assay: CYP450 panel, 2D6; conditions: 10 μM; substrate dextromethophan
# hERG Channel = hERG Channel (Homo sapiens, UniProt Q12809); assay: cell-based
# CYP450 2C9 = CYP450 2C9 (Homo sapiens, UniProt P11712); assay: CYP450 panel, 2C9; conditions: 10 μM; substrate Diclofenac
# [1] = Absorption & efflux: Caco-2 permeability; conditions: human
# [2] = Microsome stability, beagle dog; type: in vitro ADME; conditions: microsomes, 2 μM
# CYP450 2C8 = molecular target: T2, CYP450 2C8 (Homo sapiens, UniProt P10632); assay: CYP450 panel, 2C8; conditions: 10 μM; substrate amodiaquine
# T2 sequence (P10632 1-490): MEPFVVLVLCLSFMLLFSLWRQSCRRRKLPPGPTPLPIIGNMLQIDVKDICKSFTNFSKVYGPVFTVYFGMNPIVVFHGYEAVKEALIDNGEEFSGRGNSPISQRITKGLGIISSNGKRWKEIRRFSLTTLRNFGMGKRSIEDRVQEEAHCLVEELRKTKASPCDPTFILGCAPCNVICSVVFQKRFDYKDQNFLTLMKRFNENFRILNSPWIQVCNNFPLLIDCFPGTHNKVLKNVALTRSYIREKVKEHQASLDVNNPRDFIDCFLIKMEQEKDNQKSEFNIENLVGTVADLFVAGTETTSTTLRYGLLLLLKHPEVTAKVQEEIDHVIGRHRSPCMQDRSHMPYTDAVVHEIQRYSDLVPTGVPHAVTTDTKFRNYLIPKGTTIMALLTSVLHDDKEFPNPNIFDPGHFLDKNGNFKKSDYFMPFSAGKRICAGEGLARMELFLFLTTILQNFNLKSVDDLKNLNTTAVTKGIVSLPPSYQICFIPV
# [3] = Plasma stability, beagle dog; type: in vitro ADME; conditions: 2 μM
# [4] = Microsome stability, human; type: in vitro ADME; conditions: microsomes, 2 μM
# A549 pERK = assay: A549-pERK, 2 h (quantitative Western, Jess); type: cell-based; conditions: Homo sapiens, A549, 2 h, 10 nM, phospho:total ratio normalized to DMSO control
# Outline: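 Cells treated in duplicate for 2 h with compound, lysed and protein-normalised (1 mg/mL pERK, 1.5 mg/mL pMEK). Quantitative capillary Western; phospho/total protein ratio normalised to DMSO.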
# CYP450 2C19 = CYP450 2C19 (Homo sapiens, UniProt P33261); assay: CYP450 panel, 2C19; conditions: 10 μM; substrate mephenytoin
# [5] = Plasma stability, CD-1 mouse; type: in vitro ADME; conditions: 2 μM
# CYP450 3A4 = CYP450 3A4 (Homo sapiens, UniProt P08684); assay: CYP450 panel, 3A4; conditions: 10 μM; for 3A4*: substrate midazolam; for 3A4^: substrate testosterone
# [6] = Microsome stability, CD-1 mouse; conditions: microsomes, 2 μM
# CYP450 2B6 = molecular target: T3, CYP450 2B6 (Homo sapiens, UniProt P20813); assay: CYP450 panel, 2B6; conditions: 10 μM; substrate bupropion
# T3 sequence (P20813 1-491): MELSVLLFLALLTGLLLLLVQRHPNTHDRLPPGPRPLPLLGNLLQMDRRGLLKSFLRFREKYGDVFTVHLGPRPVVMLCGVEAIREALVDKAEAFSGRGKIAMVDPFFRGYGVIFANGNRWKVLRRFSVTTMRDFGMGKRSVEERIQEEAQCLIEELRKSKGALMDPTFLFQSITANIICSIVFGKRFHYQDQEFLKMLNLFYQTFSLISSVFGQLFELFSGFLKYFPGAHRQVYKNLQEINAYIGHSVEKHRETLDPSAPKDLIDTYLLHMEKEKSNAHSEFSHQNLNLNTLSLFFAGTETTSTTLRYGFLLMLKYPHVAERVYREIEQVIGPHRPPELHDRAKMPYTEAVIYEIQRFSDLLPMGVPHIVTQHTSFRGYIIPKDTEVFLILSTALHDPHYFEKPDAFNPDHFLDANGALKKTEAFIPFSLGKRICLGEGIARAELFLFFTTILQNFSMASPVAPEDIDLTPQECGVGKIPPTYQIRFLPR
# [7] = system: A549 CRAF BP (MEK phosphorylation); assay: A549-CRAF BP 100 nM, 2 h (pMEK); type: cell-based; conditions: Homo sapiens, A549, 2 h, phospho:total ratio normalized to DMSO control
# Protocol: A549 or […] cells were treated in duplicate for two hours with compounds at varying concentrations. After two hours, the cells were lysed, snap frozen, and stored at −80° C. After storage, the lysate was quantified with the Bradford assay. Before the lysates were prepared to run on the Jess, the lysates were diluted to 1 mg/mL for pERK analysis and 1.5 mg/mL pMEK analysis using quantitative Western blotting. ERK and MEK phosphorylation levels were estimated by taking the ratio of phospho-protein to total protein and normalizing to the DMSO control. The results of this study are described in Tables 14-16.
# [8] = Caco-2, A-B Permeability Ranking
# [9] = Caco-2, Mean Papp A-B (10^−6 cm/s)
# CYP450 2C19, sequence (P33261 whole entry): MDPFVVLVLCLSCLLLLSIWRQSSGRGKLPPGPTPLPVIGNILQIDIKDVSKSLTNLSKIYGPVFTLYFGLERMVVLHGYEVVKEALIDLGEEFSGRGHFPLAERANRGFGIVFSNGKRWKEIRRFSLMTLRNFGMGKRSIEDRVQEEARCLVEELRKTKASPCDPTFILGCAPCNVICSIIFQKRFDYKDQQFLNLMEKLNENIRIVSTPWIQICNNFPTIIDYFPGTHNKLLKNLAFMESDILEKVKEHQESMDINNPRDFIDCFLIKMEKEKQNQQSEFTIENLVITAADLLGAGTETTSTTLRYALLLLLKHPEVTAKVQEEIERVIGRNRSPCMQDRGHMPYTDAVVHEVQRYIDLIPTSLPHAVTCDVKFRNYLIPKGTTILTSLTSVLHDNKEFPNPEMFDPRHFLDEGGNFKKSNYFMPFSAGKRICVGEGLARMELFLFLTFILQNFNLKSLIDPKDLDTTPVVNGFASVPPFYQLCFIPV
# CYP450 3A4, sequence (P08684 whole entry): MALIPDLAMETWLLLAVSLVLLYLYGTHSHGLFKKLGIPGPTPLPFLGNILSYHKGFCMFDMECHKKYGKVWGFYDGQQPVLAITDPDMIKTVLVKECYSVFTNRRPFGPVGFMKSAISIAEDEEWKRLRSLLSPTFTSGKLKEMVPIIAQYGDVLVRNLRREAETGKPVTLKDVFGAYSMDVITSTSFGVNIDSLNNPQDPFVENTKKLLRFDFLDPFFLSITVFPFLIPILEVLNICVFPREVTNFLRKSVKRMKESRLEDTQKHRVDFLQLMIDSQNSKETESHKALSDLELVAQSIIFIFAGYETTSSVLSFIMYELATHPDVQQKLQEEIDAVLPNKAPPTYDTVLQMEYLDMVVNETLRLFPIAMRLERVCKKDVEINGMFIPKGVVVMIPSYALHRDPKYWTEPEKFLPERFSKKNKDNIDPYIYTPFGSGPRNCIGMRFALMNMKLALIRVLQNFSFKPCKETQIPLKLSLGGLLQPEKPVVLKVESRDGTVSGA
# CYP450 2D6, sequence (P10635 whole entry): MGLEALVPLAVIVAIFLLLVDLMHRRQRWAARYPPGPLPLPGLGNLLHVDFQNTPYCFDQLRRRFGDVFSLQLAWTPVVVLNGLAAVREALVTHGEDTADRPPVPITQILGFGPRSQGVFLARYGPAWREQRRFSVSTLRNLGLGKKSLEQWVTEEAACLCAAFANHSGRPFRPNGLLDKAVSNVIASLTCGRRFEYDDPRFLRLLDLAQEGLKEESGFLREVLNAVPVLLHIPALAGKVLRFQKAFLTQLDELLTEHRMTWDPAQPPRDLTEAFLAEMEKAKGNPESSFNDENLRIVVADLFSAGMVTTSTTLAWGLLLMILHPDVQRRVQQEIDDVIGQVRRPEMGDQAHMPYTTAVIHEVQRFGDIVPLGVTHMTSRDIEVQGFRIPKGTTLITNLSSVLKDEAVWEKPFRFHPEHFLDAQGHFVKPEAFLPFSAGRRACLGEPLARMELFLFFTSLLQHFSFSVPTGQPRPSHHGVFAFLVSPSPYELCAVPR
# hERG Channel, sequence (Q12809 whole entry): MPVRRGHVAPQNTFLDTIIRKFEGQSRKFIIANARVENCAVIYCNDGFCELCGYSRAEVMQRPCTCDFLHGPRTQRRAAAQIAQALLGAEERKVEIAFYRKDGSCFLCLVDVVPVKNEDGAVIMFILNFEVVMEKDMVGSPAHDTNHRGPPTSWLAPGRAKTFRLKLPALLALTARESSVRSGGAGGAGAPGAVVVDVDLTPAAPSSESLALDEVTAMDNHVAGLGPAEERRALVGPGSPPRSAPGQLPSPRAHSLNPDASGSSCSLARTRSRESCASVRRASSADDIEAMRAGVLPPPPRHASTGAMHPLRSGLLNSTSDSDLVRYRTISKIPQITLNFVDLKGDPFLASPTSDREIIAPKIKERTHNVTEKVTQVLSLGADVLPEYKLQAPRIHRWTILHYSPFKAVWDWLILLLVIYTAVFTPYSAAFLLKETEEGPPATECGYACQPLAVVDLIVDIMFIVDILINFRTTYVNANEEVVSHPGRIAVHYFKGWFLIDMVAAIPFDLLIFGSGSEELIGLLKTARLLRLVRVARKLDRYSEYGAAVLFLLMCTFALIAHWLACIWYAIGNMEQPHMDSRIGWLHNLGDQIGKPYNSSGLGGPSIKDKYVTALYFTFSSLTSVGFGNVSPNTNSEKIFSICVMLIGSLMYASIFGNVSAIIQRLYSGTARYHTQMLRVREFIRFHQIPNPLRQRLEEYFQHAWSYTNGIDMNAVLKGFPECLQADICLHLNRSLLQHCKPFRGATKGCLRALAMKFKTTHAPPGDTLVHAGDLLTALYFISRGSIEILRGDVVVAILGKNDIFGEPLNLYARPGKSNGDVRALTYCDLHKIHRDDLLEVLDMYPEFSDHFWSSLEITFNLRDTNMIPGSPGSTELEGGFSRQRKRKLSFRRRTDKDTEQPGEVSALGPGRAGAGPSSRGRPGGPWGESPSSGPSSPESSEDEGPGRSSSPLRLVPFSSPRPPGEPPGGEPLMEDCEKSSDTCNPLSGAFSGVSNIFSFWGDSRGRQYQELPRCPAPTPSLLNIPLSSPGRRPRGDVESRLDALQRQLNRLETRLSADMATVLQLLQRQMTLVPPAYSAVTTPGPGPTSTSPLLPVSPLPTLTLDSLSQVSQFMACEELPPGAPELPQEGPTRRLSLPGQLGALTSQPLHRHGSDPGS
# CYP450 2C9, sequence (P11712 whole entry): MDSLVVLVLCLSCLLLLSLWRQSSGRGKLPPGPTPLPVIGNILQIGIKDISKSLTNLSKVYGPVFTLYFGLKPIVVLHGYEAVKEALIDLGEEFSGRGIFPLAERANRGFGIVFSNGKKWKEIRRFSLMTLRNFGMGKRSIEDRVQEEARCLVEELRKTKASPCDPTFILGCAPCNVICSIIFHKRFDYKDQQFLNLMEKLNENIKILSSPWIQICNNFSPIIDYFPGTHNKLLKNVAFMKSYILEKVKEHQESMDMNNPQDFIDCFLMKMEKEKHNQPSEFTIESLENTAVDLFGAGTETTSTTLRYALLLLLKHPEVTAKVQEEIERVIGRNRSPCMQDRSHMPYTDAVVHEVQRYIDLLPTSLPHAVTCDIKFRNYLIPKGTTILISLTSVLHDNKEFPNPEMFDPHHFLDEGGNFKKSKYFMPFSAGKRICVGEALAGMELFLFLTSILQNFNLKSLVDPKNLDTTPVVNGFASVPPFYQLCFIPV
Compound,1A2* (CYP450 1A2),"Human (% Reamining @2 hour) (Plasma stability, human)",2D6* (CYP450 2D6),pIC50 (hERG Channel),2C9* (CYP450 2C9),"Papp B→A at 2 h, 10 μM [1]","efflux ratio at 2 h, 10 μM [1]","Papp A→B at 2 h, 10 μM [1, 8]","Papp A→B at 2 h, 10 μM [1, 9]",Beagle Dog (% Reamining @1 hour) [2],2C8* (CYP450 2C8),Beagle Dog (% Reamining @2 hour) [3],Human (% Reamining @1 hour) [4],activity at 0.01 µM (A549 pERK),2C19* (CYP450 2C19),CD-1 Mouse (% Reamining @2 hour) [5],3A4* (CYP450 3A4),3A4^ (CYP450 3A4),CD-1 Mouse (% Reamining @1 hour) [6],2B6* (CYP450 2B6),also measured
CNS(=O)(=O)Nc1cccc(Cc2c(CN3CCN(C)CC3)c3ccc(OC(=O)N(C)C)cc3oc2=O)c1F [Compound 15],7.8,98.1%,0.5,5.19,3.0,34.9 ×10⁻⁶ cm/s,29.3,> 1 ×10⁻⁶ cm/s,1.19 ×10⁻⁶ cm/s,46.0%,−16.9,89.1%,75.8%,73.8%,4.3,87.1%,21.3,20.5,77.6%,16.3,–
CNS(=O)(=O)Nc1cccc(Cc2c(CNC3CC3)c3ccc(OC(=O)N(C)C)cc3oc2=O)c1F [Compound 11],6.9,93.7%,9.8,5.96,12.9,19.7 ×10⁻⁶ cm/s,2.15,> 1 ×10⁻⁶ cm/s,9.18 ×10⁻⁶ cm/s,4.9%,0.8,97.8%,28.9%,–,9.7,81.4%,36.1,44.8,7.0%,12.1,–
COc1ccc2[nH]c([S+]([O-])Cc3ncc(C)c(OC)c3C)nc2c1 (stereo not shown) [Omeprazole],–,–,–,–,–,–,–,–,–,–,–,–,–,–,61.6,–,–,–,–,–,–
O=c1c(O)c(-c2ccc(O)c(O)c2)oc2cc(O)cc(O)c12 [Quercetin],–,–,–,–,–,–,–,–,–,–,93.1,–,–,–,–,–,–,–,–,–,–
CC(C)[N+](C)(CCOC(=O)C1c2ccccc2Oc2ccccc21)C(C)C [Propantheline],–,5.7%,–,–,–,–,–,–,–,–,–,58.4%,–,–,–,27.1%,–,–,–,–,–
Nc1ccc(S(=O)(=O)Nc2ccnn2-c2ccccc2)cc1 [Sulfaphenazole],–,–,–,–,101.2,–,–,–,–,–,–,–,–,–,–,–,–,–,–,–,–
CNS(=O)(=O)Nc1cccc(Cc2c(CNc3ccn[nH]3)c3ccc(OC(=O)N(C)C)cc3oc2=O)c1F [Compound 12],13.0,100.5%,4.5,< 4.52,8.4,17.9 ×10⁻⁶ cm/s,16.9,> 1 ×10⁻⁶ cm/s,1.06 ×10⁻⁶ cm/s,42.8%,2.4,102.6%,32.9%,–,16.0,86.6%,29.2,31.9,28.2%,14.9,–
CCS(=O)(=O)Nc1cccc(Cc2c(C)c3ccc(OC(=O)N(C)C)cc3oc2=O)c1F [Compound 107],–,–,–,–,–,–,–,–,–,–,–,–,–,18%,–,–,–,–,–,–,activity at 0.1 µM [7]: 39.9%
Cc1c(Cc2cccc(NS(=O)(=O)C3CC3)c2F)c(=O)oc2cc(OC(=O)N(C)C)ccc12 [Compound 113],–,–,–,–,–,–,–,–,–,–,–,–,–,24.7%,–,–,–,–,–,–,activity at 0.1 µM [7]: 48%
Cc1c(Cc2cccc(NS(=O)(=O)C3CCC3)c2F)c(=O)oc2cc(OC(=O)N(C)C)ccc12 [Compound 118],–,–,–,–,–,–,–,–,–,–,–,–,–,21.1%,–,–,–,–,–,–,activity at 0.1 µM [7]: 39.1%
